Measurements taken from PubChem BioAssay (NCI).
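Values below derive from 48-hour exposures of cells grown in 96-well plates, with endpoints linearly interpolated between the two concentrations bracketing the appropriate inhibition level. GI50: concentration for 50% inhibition of growth. At the TGI there is no net growth.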

What was measured:
Assay in all cases: inhibition of tumour cell growth, NCI panel, 48 h
CAKI-1 renal = system: CAKI-1 renal
TK-10 renal = system: TK-10 renal
HCT-15 colon = system: HCT-15 colon
MDA-MB-468 breast = system: MDA-MB-468 breast
OVCAR-3 ovarian = system: OVCAR-3 ovarian
SK-MEL-2 melanoma = system: SK-MEL-2 melanoma
RPMI-8226 leukemia = system: RPMI-8226 leukemia
MALME-3M melanoma = system: MALME-3M melanoma
SF-268 CNS = system: SF-268 CNS
NCI-H460 lung = system: NCI-H460 lung
SW-620 colon = system: SW-620 colon
EKVX NSCLC = system: EKVX NSCLC
SK-OV-3 ovarian = system: SK-OV-3 ovarian
A498 renal = system: A498 renal
SF-295 CNS = system: SF-295 CNS
KM12 colon = system: KM12 colon
OVCAR-4 ovarian = system: OVCAR-4 ovarian
SK-MEL-28 melanoma = system: SK-MEL-28 melanoma
HCC-2998 colon = system: HCC-2998 colon
OVCAR-5 ovarian = system: OVCAR-5 ovarian
NCI/ADR-RES ovarian = system: NCI/ADR-RES ovarian
SK-MEL-5 melanoma = system: SK-MEL-5 melanoma
HOP-62 NSCLC = system: HOP-62 NSCLC
OVCAR-8 ovarian = system: OVCAR-8 ovarian
IGROV1 ovarian = system: IGROV1 ovarian
SF-539 CNS = system: SF-539 CNS
BT-549 breast = system: BT-549 breast
UACC-62 melanoma = system: UACC-62 melanoma
NCI-H226 lung = system: NCI-H226 lung
SNB-75 CNS = system: SNB-75 CNS
SN12C renal = system: SN12C renal
SNB-19 CNS = system: SNB-19 CNS
A549 NSCLC = system: A549 NSCLC
786-0 renal = system: 786-0 renal
ACHN renal = system: ACHN renal
MCF7 breast = system: MCF7 breast
NCI-H522 lung = system: NCI-H522 lung
MDA-MB-435 = system: MDA-MB-435
NCI-H23 lung = system: NCI-H23 lung
CCRF-CEM leukemia = system: CCRF-CEM leukemia
U251 CNS = system: U251 CNS
RXF 393 renal = system: RXF 393 renal
UO-31 renal = system: UO-31 renal
K-562 leukemia = system: K-562 leukemia
HOP-92 NSCLC = system: HOP-92 NSCLC
LOX IMVI melanoma = system: LOX IMVI melanoma
T-47D breast = system: T-47D breast
HS 578T breast = system: HS 578T breast
MDA-MB-231 breast = system: MDA-MB-231 breast
COLO 205 colon = system: COLO 205 colon

## Cc1ccc(/C(CSc2nnc(-c3c[nH]c4ccccc34)n2-c2ccccc2)=N/O)cc1
CAKI-1 renal
  GI50: 1.63 µM
  TGI: 3.06 µM
TK-10 renal
  GI50: 1.9 µM
  TGI: 3.87 µM
HCT-15 colon
  GI50: 1.75 µM
  TGI: 3.34 µM
MDA-MB-468 breast
  GI50: 1.5 µM
  TGI: 2.91 µM
OVCAR-3 ovarian
  GI50: 4.26 µM
  TGI: 25.5 µM
SK-MEL-2 melanoma
  GI50: 2.88 µM
  TGI: 8.96 µM
RPMI-8226 leukemia
  GI50: 2.05 µM
  TGI: 4.81 µM
MALME-3M melanoma
  GI50: 2.26 µM
  TGI: 5.57 µM
SF-268 CNS
  GI50: 1.99 µM
  TGI: 4.66 µM
NCI-H460 lung
  GI50: 3.18 µM
  TGI: 12.2 µM
SW-620 colon
  GI50: 1.79 µM
  TGI: 3.55 µM
EKVX NSCLC
  GI50: 2.15 µM
  TGI: 5.58 µM
SK-OV-3 ovarian
  GI50: 1.68 µM
  TGI: 3.64 µM
A498 renal
  GI50: 24.8 µM
  TGI: 89.1 µM
SF-295 CNS
  GI50: 1.64 µM
  TGI: 3.18 µM
KM12 colon
  GI50: 8.65 µM
  TGI: > 100 µM
OVCAR-4 ovarian
  GI50: 1.75 µM
  TGI: 3.51 µM
SK-MEL-28 melanoma
  GI50: 5.67 µM
  TGI: 38.7 µM
HCC-2998 colon
  GI50: 2.09 µM
  TGI: 3.93 µM
OVCAR-5 ovarian
  GI50: 1.69 µM
  TGI: 3.11 µM
NCI/ADR-RES ovarian
  GI50: 2 µM
  TGI: 3.9 µM
SK-MEL-5 melanoma
  GI50: 4.76 µM
  TGI: 48.1 µM
HOP-62 NSCLC
  GI50: 1.69 µM
  TGI: 3.42 µM
OVCAR-8 ovarian
  GI50: 2.19 µM
  TGI: 4.89 µM
IGROV1 ovarian
  GI50: 2.09 µM
  TGI: 4.35 µM
SF-539 CNS
  GI50: 2.06 µM
  TGI: 4.41 µM
BT-549 breast
  GI50: 1.59 µM
  TGI: 3.03 µM
UACC-62 melanoma
  GI50: 1.69 µM
  TGI: 3.26 µM
NCI-H226 lung
  GI50: 1.63 µM
  TGI: 3.36 µM
SNB-75 CNS
  GI50: 1.4 µM
  TGI: 2.77 µM
SN12C renal
  GI50: 2.33 µM
  TGI: 6.8 µM
SNB-19 CNS
  GI50: 1.87 µM
  TGI: 3.97 µM
A549 NSCLC
  GI50: 3.55 µM
  TGI: 69.7 µM
786-0 renal
  GI50: 10 µM
  TGI: 31.4 µM
ACHN renal
  GI50: 1.79 µM
  TGI: 3.35 µM
MCF7 breast
  GI50: 2.42 µM
  TGI: 7.01 µM
NCI-H522 lung
  GI50: 2.24 µM
  TGI: 6.04 µM
MDA-MB-435
  GI50: 1.63 µM
  TGI: 3.05 µM
NCI-H23 lung
  GI50: 10.1 µM
  TGI: 52.2 µM
CCRF-CEM leukemia
  GI50: 2.14 µM
  TGI: 4.98 µM
U251 CNS
  GI50: 8.22 µM
  TGI: > 100 µM
RXF 393 renal
  GI50: 1.85 µM
  TGI: 3.76 µM
UO-31 renal
  GI50: 1.82 µM
  TGI: 4.15 µM
K-562 leukemia
  GI50: 2.01 µM
  TGI: 4.97 µM
HOP-92 NSCLC
  GI50: 11.9 µM
  TGI: 37.4 µM
LOX IMVI melanoma
  GI50: 1.75 µM
  TGI: 3.17 µM
T-47D breast
  GI50: 2.07 µM
  TGI: 4.75 µM
HS 578T breast
  GI50: 2.07 µM
  TGI: 4.82 µM
MDA-MB-231 breast
  GI50: 1.77 µM
  TGI: 3.33 µM
COLO 205 colon
  GI50: 3.77 µM
  TGI: 37.4 µM
